According to patent EP4745137A1 (Gluetacs Therapeutics (Shanghai) Co., Ltd., priority 2023, dated 2025):

How the values were obtained:
Assay type in all cases: cell-based
Details in all cases: 24 hours of compound treatment
[1] = biological target: T1, WEE1 (Homo sapiens, UniProt P30291+Q96SW2); assay: Western-blot assay of substrate protein degradation in hPBMCs, WEE1
T1 construct: endogenous in cells; host or cells: hPBMCs (Milecell Biotechnologies)

[2] = biological target: T2, IKZF3 (Homo sapiens, UniProt Q96SW2+Q9UKT9); assay: Western-blot assay of substrate protein degradation in hPBMCs, IKZF3
T2 construct: endogenous in cells; host or cells: hPBMCs (Milecell Biotechnologies)

[3] = biological target: T3, CK1α (Homo sapiens, UniProt P48729+Q96SW2); assay: Western-blot assay of substrate protein degradation in hPBMCs, CK1α
T3 construct: endogenous in cells; host or cells: hPBMCs (Milecell Biotechnologies)

[4] = biological target: T4, GSPT1 (Homo sapiens, UniProt P15170+Q96SW2); assay: Western-blot assay of substrate protein degradation in hPBMCs, GSPT1
T4 construct: endogenous in cells; host or cells: hPBMCs (Milecell Biotechnologies)

[5] = biological target: T5, IKZF1 (Homo sapiens, UniProt Q13422+Q96SW2); assay: Western-blot assay of substrate protein degradation in hPBMCs, IKZF1
T5 construct: endogenous in cells; host or cells: hPBMCs (Milecell Biotechnologies)

[6] = biological target: T6, IKZF2 (Homo sapiens, UniProt Q96SW2+Q9UKS7); assay: Western-blot assay of substrate protein degradation in hPBMCs, IKZF2
T6 construct: endogenous in cells; host or cells: hPBMCs (Milecell Biotechnologies)

[7] = compounds tested at 50 nM and 500 nM (concentration of the table not stated)
[8] = 50 nM and 500 nM tested (concentration behind the class not stated)

T1 sequence (P30291 whole entry): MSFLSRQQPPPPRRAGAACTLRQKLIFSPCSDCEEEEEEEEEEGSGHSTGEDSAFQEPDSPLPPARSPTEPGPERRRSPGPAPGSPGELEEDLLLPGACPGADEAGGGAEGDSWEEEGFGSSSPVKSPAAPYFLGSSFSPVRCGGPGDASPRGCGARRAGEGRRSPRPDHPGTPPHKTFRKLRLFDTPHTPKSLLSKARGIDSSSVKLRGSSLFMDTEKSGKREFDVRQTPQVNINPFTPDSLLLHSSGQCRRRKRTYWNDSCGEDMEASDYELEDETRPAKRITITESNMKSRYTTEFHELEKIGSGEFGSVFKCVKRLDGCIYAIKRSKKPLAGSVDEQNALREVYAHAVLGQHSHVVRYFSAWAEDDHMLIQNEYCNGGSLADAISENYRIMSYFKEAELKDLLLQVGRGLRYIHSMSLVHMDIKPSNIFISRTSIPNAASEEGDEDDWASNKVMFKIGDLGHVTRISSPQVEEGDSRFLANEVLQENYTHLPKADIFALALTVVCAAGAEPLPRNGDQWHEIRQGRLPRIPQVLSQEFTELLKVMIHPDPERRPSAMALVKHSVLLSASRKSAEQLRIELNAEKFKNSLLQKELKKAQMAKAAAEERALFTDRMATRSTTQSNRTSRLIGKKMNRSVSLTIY
T1 sequence (Q96SW2 whole entry): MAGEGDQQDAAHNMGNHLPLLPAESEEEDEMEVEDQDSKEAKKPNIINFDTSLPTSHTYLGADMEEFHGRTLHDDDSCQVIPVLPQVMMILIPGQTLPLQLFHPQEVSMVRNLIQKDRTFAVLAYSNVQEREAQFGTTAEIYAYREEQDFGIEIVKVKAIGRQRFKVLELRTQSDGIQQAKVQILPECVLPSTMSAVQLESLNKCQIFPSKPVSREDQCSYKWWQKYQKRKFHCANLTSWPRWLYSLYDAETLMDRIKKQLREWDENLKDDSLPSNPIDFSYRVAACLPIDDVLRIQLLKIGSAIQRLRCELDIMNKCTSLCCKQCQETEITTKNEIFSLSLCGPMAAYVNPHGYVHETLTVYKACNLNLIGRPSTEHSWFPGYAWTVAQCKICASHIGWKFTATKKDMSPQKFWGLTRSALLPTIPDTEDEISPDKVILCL
T1 sequence (Q16531 whole entry partner): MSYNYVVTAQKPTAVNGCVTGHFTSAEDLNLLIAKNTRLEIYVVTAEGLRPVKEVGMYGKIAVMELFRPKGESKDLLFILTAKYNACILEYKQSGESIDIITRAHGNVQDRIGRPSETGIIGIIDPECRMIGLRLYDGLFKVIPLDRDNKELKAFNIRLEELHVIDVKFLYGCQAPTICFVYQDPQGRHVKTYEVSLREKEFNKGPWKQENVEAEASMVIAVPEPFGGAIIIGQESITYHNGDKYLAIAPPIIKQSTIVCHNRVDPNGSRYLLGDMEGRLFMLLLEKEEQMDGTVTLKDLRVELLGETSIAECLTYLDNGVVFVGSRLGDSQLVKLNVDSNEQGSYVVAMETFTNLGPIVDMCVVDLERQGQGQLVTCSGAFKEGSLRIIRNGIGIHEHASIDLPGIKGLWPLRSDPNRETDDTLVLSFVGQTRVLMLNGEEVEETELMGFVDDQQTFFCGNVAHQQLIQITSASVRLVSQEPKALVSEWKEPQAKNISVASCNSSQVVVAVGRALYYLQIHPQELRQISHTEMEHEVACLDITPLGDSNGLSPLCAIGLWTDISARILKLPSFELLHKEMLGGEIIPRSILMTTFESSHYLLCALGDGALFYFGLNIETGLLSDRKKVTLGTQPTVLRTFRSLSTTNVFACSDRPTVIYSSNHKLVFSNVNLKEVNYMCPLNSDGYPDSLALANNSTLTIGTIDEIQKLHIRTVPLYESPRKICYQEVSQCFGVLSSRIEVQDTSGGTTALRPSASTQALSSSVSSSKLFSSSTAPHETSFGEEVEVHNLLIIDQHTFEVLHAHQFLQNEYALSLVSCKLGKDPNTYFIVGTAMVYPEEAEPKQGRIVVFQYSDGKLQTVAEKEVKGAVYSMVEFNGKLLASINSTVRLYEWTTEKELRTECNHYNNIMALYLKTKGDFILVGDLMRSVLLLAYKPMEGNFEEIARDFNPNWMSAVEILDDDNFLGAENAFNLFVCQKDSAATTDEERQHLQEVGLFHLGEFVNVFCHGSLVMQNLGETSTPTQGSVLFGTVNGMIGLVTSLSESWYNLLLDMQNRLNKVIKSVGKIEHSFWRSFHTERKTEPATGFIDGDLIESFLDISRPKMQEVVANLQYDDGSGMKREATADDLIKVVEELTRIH
T4 sequence (P15170 whole entry): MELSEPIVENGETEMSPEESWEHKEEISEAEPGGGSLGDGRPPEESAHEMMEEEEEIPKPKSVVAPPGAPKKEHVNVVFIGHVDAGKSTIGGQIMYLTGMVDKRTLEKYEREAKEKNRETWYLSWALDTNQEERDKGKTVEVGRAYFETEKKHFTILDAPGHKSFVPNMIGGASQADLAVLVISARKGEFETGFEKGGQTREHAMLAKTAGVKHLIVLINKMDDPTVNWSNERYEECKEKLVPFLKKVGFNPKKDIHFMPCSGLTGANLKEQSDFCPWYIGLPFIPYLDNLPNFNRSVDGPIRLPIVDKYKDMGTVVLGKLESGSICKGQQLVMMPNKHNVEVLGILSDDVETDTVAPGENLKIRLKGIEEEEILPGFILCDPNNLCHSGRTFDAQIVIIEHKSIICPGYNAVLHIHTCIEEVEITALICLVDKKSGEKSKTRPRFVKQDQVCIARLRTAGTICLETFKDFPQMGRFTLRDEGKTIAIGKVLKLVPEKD
T4 sequence (Q96SW2 whole entry): as the sequence (Q96SW2 whole entry) above
T4 sequence (Q16531 whole entry partner): as the sequence (Q16531 whole entry partner) above
T6 sequence (Q9UKS7 whole entry): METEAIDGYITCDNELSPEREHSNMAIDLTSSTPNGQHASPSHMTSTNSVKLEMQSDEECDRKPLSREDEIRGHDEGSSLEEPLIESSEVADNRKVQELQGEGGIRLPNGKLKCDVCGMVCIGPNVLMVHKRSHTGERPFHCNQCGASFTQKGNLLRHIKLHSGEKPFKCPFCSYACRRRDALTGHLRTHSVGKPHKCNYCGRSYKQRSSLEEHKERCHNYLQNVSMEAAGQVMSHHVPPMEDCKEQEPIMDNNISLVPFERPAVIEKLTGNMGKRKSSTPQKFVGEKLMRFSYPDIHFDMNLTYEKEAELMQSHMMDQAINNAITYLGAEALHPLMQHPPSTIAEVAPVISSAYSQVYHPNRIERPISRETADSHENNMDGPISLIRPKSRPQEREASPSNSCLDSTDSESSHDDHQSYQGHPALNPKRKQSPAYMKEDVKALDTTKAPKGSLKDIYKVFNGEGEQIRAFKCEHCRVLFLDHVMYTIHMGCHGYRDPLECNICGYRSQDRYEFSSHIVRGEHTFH
T6 sequence (Q96SW2 whole entry): as the sequence (Q96SW2 whole entry) above
T6 sequence (Q16531 whole entry partner): as the sequence (Q16531 whole entry partner) above
T2 sequence (Q9UKT9 whole entry): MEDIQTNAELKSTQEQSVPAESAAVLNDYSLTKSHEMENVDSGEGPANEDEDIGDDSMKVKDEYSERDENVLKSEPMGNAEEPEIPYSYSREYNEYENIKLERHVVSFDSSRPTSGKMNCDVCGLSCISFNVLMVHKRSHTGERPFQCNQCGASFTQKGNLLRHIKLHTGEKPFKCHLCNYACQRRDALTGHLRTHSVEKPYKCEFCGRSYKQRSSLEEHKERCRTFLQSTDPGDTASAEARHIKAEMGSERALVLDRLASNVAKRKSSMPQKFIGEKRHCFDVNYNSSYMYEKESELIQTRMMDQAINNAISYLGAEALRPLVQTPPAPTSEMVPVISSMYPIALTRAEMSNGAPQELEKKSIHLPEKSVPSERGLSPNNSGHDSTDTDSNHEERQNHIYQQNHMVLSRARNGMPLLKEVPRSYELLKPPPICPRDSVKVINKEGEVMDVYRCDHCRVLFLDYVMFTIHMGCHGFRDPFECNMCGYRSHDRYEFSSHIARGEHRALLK
T2 sequence (Q96SW2 whole entry): as the sequence (Q96SW2 whole entry) above
T2 sequence (Q16531 whole entry partner): as the sequence (Q16531 whole entry partner) above
T3 sequence (P48729 whole entry): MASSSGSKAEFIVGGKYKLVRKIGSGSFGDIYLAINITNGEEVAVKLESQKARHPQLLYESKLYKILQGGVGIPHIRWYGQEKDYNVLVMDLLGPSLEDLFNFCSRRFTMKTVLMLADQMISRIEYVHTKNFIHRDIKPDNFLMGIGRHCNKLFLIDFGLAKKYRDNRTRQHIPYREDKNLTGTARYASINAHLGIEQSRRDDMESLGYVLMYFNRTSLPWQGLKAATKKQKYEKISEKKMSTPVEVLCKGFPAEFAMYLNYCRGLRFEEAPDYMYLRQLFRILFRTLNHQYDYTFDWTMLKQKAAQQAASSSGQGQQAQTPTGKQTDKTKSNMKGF
T3 sequence (Q96SW2 whole entry): as the sequence (Q96SW2 whole entry) above
T3 sequence (Q16531 whole entry partner): as the sequence (Q16531 whole entry partner) above

`O=C1CCC(N2Cc3cc(CN4CCN(Cc5ccc(C67CC8CC(CC(C8)C6)C7)cc5)CC4)ccc3C2=O)C(=O)N1` (stereo not drawn) [GT-03026, 3-(5-((4-(4-((3r,5r,7r)-adamantan-1-yl)benzyl)piperazin-1-yl)methyl)-1-oxoisoindolin-2-yl)piperidine-2,6-dione] was tested, and the “Weel substrate protein remaining %” value [1, 7] was “B (80%< substrate protein remaining %≤ 100%)”, the “IKZF3 substrate protein remaining %” value [2, 7] was “A (0% ≤ substrate protein remaining % ≤ 80%)” and the “CK1a substrate protein remaining %” value [3, 7] was “A (0% ≤ substrate protein remaining % ≤ 80%)”. For the same compound, the “GSPT1 substrate protein remaining %” value [4, 7] was “A (0% ≤ substrate protein remaining % ≤ 80%)”, the “IKZF 1 substrate protein remaining %” value [5, 7] was “A (0% ≤ substrate protein remaining % ≤ 80%)” and the “IKZF2 substrate protein remaining %” value [6, 7] was “A (0% ≤ substrate protein remaining % ≤ 80%)”.
`Cc1csc2ncnc(C3=CCN(Cc4ccc5c(c4)C(=O)N(C4CCC(=O)NC4=O)C5=O)CC3)c12` (stereo not drawn) [GT-06654, 2-(2,6-dioxopiperidin-3-yl)-5-((4-(5-methylthieno[2,3-d]pyrimidin-4-yl)-3,6-dihydropyridin-1(2H)-yl)methyl)isoindoline-1,3-dione] was tested, and the “Weel substrate protein remaining %” value [1, 8] was “A (0% ≤ substrate protein remaining % ≤ 80%)”, the “IKZF3 substrate protein remaining %” value [2, 8] was “B (80%< substrate protein remaining %≤ 100%)” and the “CK1a substrate protein remaining %” value [3, 8] was “B (80%< substrate protein remaining %≤ 100%)”. For the same compound, the “GSPT1 substrate protein remaining %” value [4, 8] was “A (0% ≤ substrate protein remaining % ≤ 80%)”, the “IKZF 1 substrate protein remaining %” value [5, 8] was “B (80%< substrate protein remaining %≤ 100%)” and the “IKZF2 substrate protein remaining %” value [6, 8] was “B (80%< substrate protein remaining %≤ 100%)”.
For `COc1cccc(N2CCN(Cc3ccc4c(c3)C(=O)N(C3CCC(=O)NC3=O)C4=O)CC2)c1` (stereo not drawn) [GT-06288, 2-(2,6-dioxopiperidin-3-yl)-5-((4-(3-methoxyphenyl)piperazin-1-yl)methyl)isoindoline-1,3-dione], the “Weel substrate protein remaining %” value [1, 8] was “B (80%< substrate protein remaining %≤ 100%)”, the “IKZF3 substrate protein remaining %” value [2, 8] was “B (80%< substrate protein remaining %≤ 100%)” and the “CK1a substrate protein remaining %” value [3, 8] was “B (80%< substrate protein remaining %≤ 100%)”. The “GSPT1 substrate protein remaining %” value [4, 8] was “A (0% ≤ substrate protein remaining % ≤ 80%)”, the “IKZF 1 substrate protein remaining %” value [5, 8] was “B (80%< substrate protein remaining %≤ 100%)” and the “IKZF2 substrate protein remaining %” value [6, 8] was “B (80%< substrate protein remaining %≤ 100%)”.
For `O=C1CCC(N2C(=O)c3ccc(CN4CCC(N5C(=O)COc6cc(F)ccc65)CC4)cc3C2=O)C(=O)N1` (stereo not drawn) [GT-06236, 2-(2,6-dioxopiperidin-3-yl)-5-((4-(7-fluoro-3-oxo-2,3-dihydro-4H-benzo[b][1,4]oxazin-4-yl)piperidin-1-yl)methyl)isoindoline-1,3-dione], the “Weel substrate protein remaining %” value [1, 7] was “B (80%< substrate protein remaining %≤ 100%)”, the “IKZF3 substrate protein remaining %” value [2, 7] was “B (80%< substrate protein remaining %≤ 100%)” and the “CK1a substrate protein remaining %” value [3, 7] was “B (80%< substrate protein remaining %≤ 100%)”. The “GSPT1 substrate protein remaining %” value [4, 7] was “A (0% ≤ substrate protein remaining % ≤ 80%)”, the “IKZF 1 substrate protein remaining %” value [5, 7] was “B (80%< substrate protein remaining %≤ 100%)” and the “IKZF2 substrate protein remaining %” value [6, 7] was “A (0% ≤ substrate protein remaining % ≤ 80%)”.
With `O=C1CCC(N2Cc3c(CN4CCN(c5cccc6sccc56)CC4)cccc3C2=O)C(=O)N1` (stereo not drawn) [GT-04914, 3-(4-((4-(benzo[b]thiophen-4-yl)piperazin-1-yl)methyl)-1-oxoisoindolin-2-yl)piperidine-2,6-dione] the “Weel substrate protein remaining %” value [1, 7] was “A (0% ≤ substrate protein remaining % ≤ 80%)”, the “IKZF3 substrate protein remaining %” value [2, 7] was “B (80%< substrate protein remaining %≤ 100%)” and the “CK1a substrate protein remaining %” value [3, 7] was “A (0% ≤ substrate protein remaining % ≤ 80%)”. The “GSPT1 substrate protein remaining %” value [4, 7] was “A (0% ≤ substrate protein remaining % ≤ 80%)”, the “IKZF 1 substrate protein remaining %” value [5, 7] was “A (0% ≤ substrate protein remaining % ≤ 80%)” and the “IKZF2 substrate protein remaining %” value [6, 7] was “B (80%< substrate protein remaining %≤ 100%)”.
For `O=C1CCC(N2C(=O)c3ccc(CN4CCN(c5cccc(F)n5)CC4)cc3C2=O)C(=O)N1` (stereo not drawn) [GT-06527, 2-(2,6-dioxopiperidin-3-yl)-5-((4-(6-fluoropyridin-2-yl)piperazin-1-yl)methyl)isoindoline-1,3-dione], the “Weel substrate protein remaining %” value [1, 8] was “A (0% ≤ substrate protein remaining % ≤ 80%)”, the “IKZF3 substrate protein remaining %” value [2, 8] was “A (0% ≤ substrate protein remaining % ≤ 80%)” and the “CK1a substrate protein remaining %” value [3, 8] was “B (80%< substrate protein remaining %≤ 100%)”. The “GSPT1 substrate protein remaining %” value [4, 8] was “A (0% ≤ substrate protein remaining % ≤ 80%)”, the “IKZF 1 substrate protein remaining %” value [5, 8] was “B (80%< substrate protein remaining %≤ 100%)” and the “IKZF2 substrate protein remaining %” value [6, 8] was “A (0% ≤ substrate protein remaining % ≤ 80%)”.
With `O=C1CCC(N2C(=O)c3ccc(CN4CCC(N5CCOc6cc(F)ccc65)CC4)cc3C2=O)C(=O)N1` (stereo not drawn) [GT-06235, 2-(2,6-dioxopiperidin-3-yl)-5-((4-(7-fluoro-2,3-dihydro-4H-benzo[b][1,4]oxazin-4-yl)piperidin-1-yl)methyl)isoindoline-1,3-dione] the “Weel substrate protein remaining %” value [1, 7] was “B (80%< substrate protein remaining %≤ 100%)”, the “IKZF3 substrate protein remaining %” value [2, 7] was “B (80%< substrate protein remaining %≤ 100%)” and the “CK1a substrate protein remaining %” value [3, 7] was “B (80%< substrate protein remaining %≤ 100%)”. For the same compound, the “GSPT1 substrate protein remaining %” value [4, 7] was “A (0% ≤ substrate protein remaining % ≤ 80%)”, the “IKZF 1 substrate protein remaining %” value [5, 7] was “B (80%< substrate protein remaining %≤ 100%)” and the “IKZF2 substrate protein remaining %” value [6, 7] was “B (80%< substrate protein remaining %≤ 100%)”.
With `Cc1cscc1N1CCN(Cc2ccc3c(c2)C(=O)N(C2CCC(=O)NC2=O)C3=O)CC1` (stereo not drawn) [GT-06260, 2-(2,6-dioxopiperidin-3-yl)-5-((4-(4-methylthiophen-3-yl)piperazin-1-yl)methyl)isoindoline-1,3-dione] the “Weel substrate protein remaining %” value [1, 8] was “B (80%< substrate protein remaining %≤ 100%)”, the “IKZF3 substrate protein remaining %” value [2, 8] was “B (80%< substrate protein remaining %≤ 100%)” and the “CK1a substrate protein remaining %” value [3, 8] was “B (80%< substrate protein remaining %≤ 100%)”. For the same compound, the “GSPT1 substrate protein remaining %” value [4, 8] was “A (0% ≤ substrate protein remaining % ≤ 80%)”, the “IKZF 1 substrate protein remaining %” value [5, 8] was “B (80%< substrate protein remaining %≤ 100%)” and the “IKZF2 substrate protein remaining %” value [6, 8] was “B (80%< substrate protein remaining %≤ 100%)”.
`O=C1CCC(N2C(=O)c3ccc(CN4CCC(c5ccccc5F)CC4)cc3C2=O)C(=O)N1` (stereo not drawn) [GT-06373, 2-(2,6-dioxopiperidin-3-yl)-5-((4-(2-fluorophenyl)piperidin-1-yl)methyl)isoindoline-1,3-dione] was tested, and the “Weel substrate protein remaining %” value [1, 8] was “A (0% ≤ substrate protein remaining % ≤ 80%)”, the “IKZF3 substrate protein remaining %” value [2, 8] was “B (80%< substrate protein remaining %≤ 100%)” and the “CK1a substrate protein remaining %” value [3, 8] was “B (80%< substrate protein remaining %≤ 100%)”. The “GSPT1 substrate protein remaining %” value [4, 8] was “A (0% ≤ substrate protein remaining % ≤ 80%)”, the “IKZF 1 substrate protein remaining %” value [5, 8] was “A (0% ≤ substrate protein remaining % ≤ 80%)” and the “IKZF2 substrate protein remaining %” value [6, 8] was “A (0% ≤ substrate protein remaining % ≤ 80%)”.
With `O=C1CCC(N2C(=O)c3ccc(CN4CCC(c5ccoc5)CC4)cc3C2=O)C(=O)N1` (stereo not drawn) [GT-06285, 2-(2,6-dioxopiperidin-3-yl)-5-((4-(furan-3-yl)piperidin-1-yl)methyl)isoindoline-1,3-dione] the “Weel substrate protein remaining %” value [1, 8] was “B (80%< substrate protein remaining %≤ 100%)”, the “IKZF3 substrate protein remaining %” value [2, 8] was “B (80%< substrate protein remaining %≤ 100%)” and the “CK1a substrate protein remaining %” value [3, 8] was “B (80%< substrate protein remaining %≤ 100%)”. The “GSPT1 substrate protein remaining %” value [4, 8] was “A (0% ≤ substrate protein remaining % ≤ 80%)”, the “IKZF 1 substrate protein remaining %” value [5, 8] was “B (80%< substrate protein remaining %≤ 100%)” and the “IKZF2 substrate protein remaining %” value [6, 8] was “B (80%< substrate protein remaining %≤ 100%)”.
In the case of `O=C1CCC(N2C(=O)c3ccc(CN4CCN(c5ccccn5)CC4)cc3C2=O)C(=O)N1` (stereo not drawn) [GT-06521, 2-(2,6-dioxopiperidin-3-yl)-5-((4-(pyridin-2-yl)piperazin-1-yl)methyl)isoindoline-1,3-dione], the “Weel substrate protein remaining %” value [1, 8] is reported as “B (80%< substrate protein remaining %≤ 100%)”, the “IKZF3 substrate protein remaining %” value [2, 8] is reported as “B (80%< substrate protein remaining %≤ 100%)” and the “CK1a substrate protein remaining %” value [3, 8] is reported as “B (80%< substrate protein remaining %≤ 100%)”. The “GSPT1 substrate protein remaining %” value [4, 8] was “A (0% ≤ substrate protein remaining % ≤ 80%)”, the “IKZF 1 substrate protein remaining %” value [5, 8] was “B (80%< substrate protein remaining %≤ 100%)” and the “IKZF2 substrate protein remaining %” value [6, 8] was “B (80%< substrate protein remaining %≤ 100%)”.
With `O=C1CCC(N2C(=O)c3ccc(CN4CCN(c5nccc(F)c5F)CC4)cc3C2=O)C(=O)N1` (stereo not drawn) [GT-06555, 5-((4-(3,4-difluoropyridin-2-yl)piperazin-1-yl)methyl)-2-(2,6-dioxopiperidin-3-yl)isoindoline-1,3-dione] the “Weel substrate protein remaining %” value [1, 8] was “B (80%< substrate protein remaining %≤ 100%)”, the “IKZF3 substrate protein remaining %” value [2, 8] was “B (80%< substrate protein remaining %≤ 100%)” and the “CK1a substrate protein remaining %” value [3, 8] was “B (80%< substrate protein remaining %≤ 100%)”. For the same compound, the “GSPT1 substrate protein remaining %” value [4, 8] was “A (0% ≤ substrate protein remaining % ≤ 80%)”, the “IKZF 1 substrate protein remaining %” value [5, 8] was “B (80%< substrate protein remaining %≤ 100%)” and the “IKZF2 substrate protein remaining %” value [6, 8] was “A (0% ≤ substrate protein remaining % ≤ 80%)”.
For `O=C1CCC(N2C(=O)c3ccc(CN4CCC(c5ccccc5C(F)(F)F)CC4)cc3C2=O)C(=O)N1` (stereo not drawn) [GT-06375, 2-(2,6-dioxopiperidin-3-yl)-5-((4-(2-(trifluoromethyl)phenyl)piperidin-1-yl)methyl)isoindoline-1,3-dione], the “Weel substrate protein remaining %” value [1, 8] was “A (0% ≤ substrate protein remaining % ≤ 80%)”, the “IKZF3 substrate protein remaining %” value [2, 8] was “B (80%< substrate protein remaining %≤ 100%)” and the “CK1a substrate protein remaining %” value [3, 8] was “B (80%< substrate protein remaining %≤ 100%)”. The “GSPT1 substrate protein remaining %” value [4, 8] was “A (0% ≤ substrate protein remaining % ≤ 80%)”, the “IKZF 1 substrate protein remaining %” value [5, 8] was “A (0% ≤ substrate protein remaining % ≤ 80%)” and the “IKZF2 substrate protein remaining %” value [6, 8] was “A (0% ≤ substrate protein remaining % ≤ 80%)”.
